{"source": "patent US4540688A", "about": "“β-Lactam antibiotics” (Beecham Group p.l.c., priority 1982, dated 1985)", "assay_type_in_all_cases": "cell-based", "key": {"[1]": {"test_system": "E. coli ESS", "assay": "Antibacterial in vitro activity (MIC), E. coli ESS", "settings": "Escherichia coli"}, "[2]": {"test_system": "E. coli JT4", "assay": "Antibacterial in vitro activity (MIC), E. coli JT4", "settings": "Escherichia coli"}, "[3]": {"test_system": "E. coli JT425", "assay": "Antibacterial in vitro activity (MIC), E. coli JT425", "settings": "Escherichia coli"}, "[4]": {"test_system": "E. coli NCTC 10418", "assay": "Antibacterial in vitro activity (MIC), E. coli NCTC 10418", "settings": "Escherichia coli, NCTC10418"}, "[5]": {"test_system": "Ps. aeruginosa NCTC 10662", "assay": "Antibacterial in vitro activity (MIC), Ps. aeruginosa NCTC 10662", "settings": "Pseudomonas aeruginosa"}, "[6]": {"test_system": "Ps. aeruginosa Dalgleish", "assay": "Antibacterial in vitro activity (MIC), Ps. aeruginosa Dalgleish", "settings": "Pseudomonas aeruginosa; Ps. aeruginosa Dalgleish 10^-2"}, "[7]": {"test_system": "S. marcesens US32", "assay": "Antibacterial in vitro activity (MIC), S. marcesens US32"}, "[8]": {"test_system": "K. aerogenes A", "assay": "Antibacterial in vitro activity (MIC), K. aerogenes A", "settings": "Klebsiella aerogenes"}, "[9]": {"test_system": "E. cloacae N1", "assay": "Antibacterial in vitro activity (MIC), E. cloacae N1", "settings": "Enterobacter cloacae"}, "[10]": {"test_system": "P. mirabilis C977", "assay": "Antibacterial in vitro activity (MIC), P. mirabilis C977", "settings": "Proteus mirabilis"}, "[11]": {"test_system": "P. rettgeri", "assay": "Antibacterial in vitro activity (MIC), P. rettgeri", "settings": "Providencia rettgeri"}, "[12]": {"test_system": "N. catarrhalis 1502", "assay": "Antibacterial in vitro activity (MIC), N. catarrhalis 1502"}, "[13]": {"test_system": "S. pyogenes CN10", "assay": "Antibacterial in vitro activity (MIC), S. pyogenes CN10", "settings": "Streptococcus pyogenes"}}, "data": [{"smiles": "CCN1CCN(C(=O)N[C@@H](C(=O)N[C@@H]2C(=O)N3[C@@H](C(=O)O)CS[C@H]23)c2ccc(O)c(O)c2)C(=O)C1=O", "note": "[Example 3, Sodium 6,β[D-2-(4-ethyl-2,3-dioxopiperazine-1-carbonylamino)-2-(3,4-dihydroxyphenyl)]acetamidobisnorpenicillanate]", "values": [{"measurement": "MIC", "setting": "[1]", "result": 20, "unit": "µg/mL"}, {"measurement": "MIC", "setting": "[2]", "result": 1000, "unit": "µg/mL"}, {"measurement": "MIC", "setting": "[3]", "result": 50, "unit": "µg/mL"}, {"measurement": "MIC", "setting": "[4]", "result": 20, "unit": "µg/mL"}, {"measurement": "MIC", "setting": "[5]; NCTC10662, Ps. aeruginosa NCTC 10662", "result": 1000, "unit": "µg/mL"}, {"measurement": "MIC", "setting": "[5]; NCTC10662, Ps. aeruginosa NCTC 10662 10^-2", "result": 100, "unit": "µg/mL"}, {"measurement": "MIC", "setting": "[6]", "result": 2500, "unit": "µg/mL"}, {"measurement": "MIC", "setting": "[7]", "result": 200, "unit": "µg/mL"}, {"measurement": "MIC", "setting": "[8]", "result": 50, "unit": "µg/mL"}, {"measurement": "MIC", "setting": "[9]", "result": 500, "unit": "µg/mL"}, {"measurement": "MIC", "setting": "[10]", "result": 100, "unit": "µg/mL"}, {"measurement": "MIC", "setting": "[11]", "result": 200, "unit": "µg/mL"}, {"measurement": "MIC", "setting": "[12]", "result": 20, "unit": "µg/mL"}, {"measurement": "MIC", "setting": "[13]", "result": 500, "unit": "µg/mL"}]}]}
